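Results reflect a 48-hour exposure of cells in 96-well plates to compound at five concentrations. TGI is the concentration that stops growth completely.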
Assays:
Assay in all cases: growth of human tumour cells (NCI), 48 h
[1] = system: 786-0 renal
[2] = system: A549 NSCLC
[3] = system: ACHN renal
[4] = system: CAKI-1 renal
[5] = system: CCRF-CEM leukemia
[6] = system: COLO 205 colon
[7] = system: DLD-1 colon
[8] = system: DMS 114 small cell lung
[9] = system: DMS 273 small cell lung
[10] = system: EKVX NSCLC
[11] = system: HCT-116 colon
[12] = system: HCT-15 colon
[13] = system: HL-60(TB) leukemia
[14] = system: HOP-18 NSCLC
[15] = system: HOP-92 NSCLC
[16] = system: HT29 colon
[17] = system: IGROV1 ovarian
[18] = system: K-562 leukemia
[19] = system: KM20L2 colon
[20] = system: LOX IMVI melanoma
[21] = system: LXFL 529 NSCLC
[22] = system: M14 melanoma
[23] = system: M19-MEL melanoma
[24] = system: MOLT-4 leukemia
[25] = system: NCI-H23 lung
[26] = system: NCI-H460 lung
[27] = system: NCI-H522 lung
[28] = system: OVCAR-8 ovarian
[29] = system: RPMI-8226 leukemia
[30] = system: RXF 393 renal
[31] = system: SF-268 CNS
[32] = system: SF-539 CNS
[33] = system: SK-MEL-28 melanoma
[34] = system: SK-MEL-5 melanoma
[35] = system: SK-OV-3 ovarian
[36] = system: SN12C renal
[37] = system: SNB-19 CNS
[38] = system: SW-620 colon
[39] = system: TK-10 renal
[40] = system: U251 CNS
[41] = system: UACC-62 melanoma
[42] = system: XF 498 CNS
[43] = system: HCC-2998 colon
[44] = system: HOP-62 NSCLC
[45] = system: KM12 colon
[46] = system: MALME-3M melanoma
[47] = system: OVCAR-3 ovarian
[48] = system: OVCAR-4 ovarian
[49] = system: OVCAR-5 ovarian
[50] = system: SF-295 CNS
[51] = system: SK-MEL-2 melanoma
[52] = system: SNB-78 CNS
[53] = system: UO-31 renal
[54] = system: A498 renal
[55] = system: NCI-H226 lung
[56] = system: SNB-75 CNS
[57] = system: SR leukemia
[58] = system: UACC-257 melanoma

Cn1nc(-c2ccccc2)c(C(=O)/C=C/c2ccc(F)cc2)c(N2CCCC2)c1=O
TGI [1]: 31.2 µM
TGI [2]: > 100 µM
TGI [3]: 62.8 µM
TGI [4]: 61.9 µM
TGI [5]: 27.8 µM
TGI [6]: 32.1 µM
TGI [7]: 39.4 µM
TGI [8]: 29.1 µM
TGI [9]: 83.3 µM
TGI [10]: 52.9 µM
TGI [11]: 20.5 µM
TGI [12]: 70 µM
TGI [13]: 23.2 µM
TGI [14]: 31.8 µM
TGI [15]: 36.3 µM
TGI [16]: 15.3 µM
TGI [17]: 50.5 µM
TGI [18]: 38.5 µM
TGI [19]: 28.3 µM
TGI [20]: > 100 µM
TGI [21]: 32.1 µM
TGI [22]: 37.4 µM
TGI [23]: 33.8 µM
TGI [24]: 31.3 µM
TGI [25]: 32.7 µM
TGI [26]: 91.7 µM
TGI [27]: 20.7 µM
TGI [28]: > 100 µM
TGI [29]: 30.5 µM
TGI [30]: 22.1 µM
TGI [31]: 51 µM
TGI [32]: 28 µM
TGI [33]: 32.8 µM
TGI [34]: 26.9 µM
TGI [35]: 59.1 µM
TGI [36]: > 100 µM
TGI [37]: 48.6 µM
TGI [38]: 37.1 µM
TGI [39]: 71.4 µM
TGI [40]: 29.2 µM
TGI [41]: 38.4 µM
TGI [42]: 54.2 µM

OC[C@@H]1CC#C/C=C\C#CC[C@@H]1CO
TGI [1]: > 100 µM
TGI [4]: > 100 µM
TGI [6]: > 100 µM
TGI [7]: > 100 µM
TGI [8]: > 100 µM
TGI [10]: > 100 µM
TGI [43]: > 100 µM
TGI [11]: > 100 µM
TGI [12]: > 100 µM
TGI [13]: > 100 µM
TGI [14]: > 100 µM
TGI [44]: > 100 µM
TGI [16]: > 100 µM
TGI [17]: > 100 µM
TGI [18]: > 100 µM
TGI [45]: > 100 µM
TGI [22]: > 100 µM
TGI [23]: > 100 µM
TGI [46]: > 100 µM
TGI [24]: > 100 µM
TGI [25]: > 100 µM
TGI [47]: > 100 µM
TGI [48]: > 100 µM
TGI [49]: > 100 µM
TGI [28]: > 100 µM
TGI [29]: > 100 µM
TGI [30]: > 100 µM
TGI [50]: > 100 µM
TGI [32]: > 100 µM
TGI [51]: > 100 µM
TGI [33]: > 100 µM
TGI [34]: > 100 µM
TGI [35]: > 100 µM
TGI [37]: > 100 µM
TGI [52]: > 100 µM
TGI [39]: > 100 µM
TGI [40]: > 100 µM
TGI [53]: > 100 µM
TGI [42]: 6.99 µM

C[O+]=c1cccc2ssnc1-2
TGI [1]: > 100 µM
TGI [54]: > 100 µM
TGI [2]: > 100 µM
TGI [3]: > 100 µM
TGI [4]: > 100 µM
TGI [5]: > 10 µM
TGI [6]: > 100 µM
TGI [7]: > 100 µM
TGI [9]: > 100 µM
TGI [10]: > 100 µM
TGI [43]: > 100 µM
TGI [11]: > 100 µM
TGI [12]: > 100 µM
TGI [13]: 69.6 µM
TGI [14]: > 100 µM
TGI [44]: > 100 µM
TGI [16]: > 100 µM
TGI [17]: > 100 µM
TGI [18]: 91.6 µM
TGI [45]: > 100 µM
TGI [19]: > 100 µM
TGI [20]: > 100 µM
TGI [21]: > 100 µM
TGI [22]: > 100 µM
TGI [23]: 69.3 µM
TGI [46]: > 100 µM
TGI [24]: 96.1 µM
TGI [55]: > 100 µM
TGI [25]: > 100 µM
TGI [26]: > 100 µM
TGI [27]: > 10 µM
TGI [47]: > 100 µM
TGI [48]: > 100 µM
TGI [49]: > 100 µM
TGI [28]: 74.1 µM
TGI [30]: > 100 µM
TGI [31]: > 100 µM
TGI [50]: > 100 µM
TGI [32]: > 100 µM
TGI [51]: > 100 µM
TGI [33]: > 100 µM
TGI [34]: 58.7 µM
TGI [35]: > 100 µM
TGI [36]: > 100 µM
TGI [37]: > 100 µM
TGI [56]: > 100 µM
TGI [52]: > 100 µM
TGI [57]: 64.8 µM
TGI [38]: 70.6 µM
TGI [39]: > 100 µM
TGI [40]: > 10 µM
TGI [58]: 88.5 µM
TGI [41]: 58.8 µM
TGI [53]: 98 µM
TGI [42]: 43.1 µM

O=C(/C=C/c1ccccc1F)c1ccc([N+](=O)[O-])cc1
TGI [1]: > 100 µM
TGI [2]: > 100 µM
TGI [3]: > 100 µM
TGI [4]: 85.4 µM
TGI [6]: > 100 µM
TGI [7]: 39.1 µM
TGI [8]: 44 µM
TGI [9]: > 100 µM
TGI [10]: > 100 µM
TGI [43]: 30.3 µM
TGI [12]: 43.8 µM
TGI [14]: > 100 µM
TGI [44]: > 100 µM
TGI [15]: 45.5 µM
TGI [16]: 39.9 µM
TGI [17]: 63.9 µM
TGI [18]: 34.8 µM
TGI [19]: > 100 µM
TGI [20]: 15.5 µM
TGI [21]: 40.7 µM
TGI [22]: 72.6 µM
TGI [23]: 50.5 µM
TGI [46]: 70 µM
TGI [25]: > 100 µM
TGI [26]: 93 µM
TGI [47]: 77.9 µM
TGI [48]: 89.7 µM
TGI [28]: 73.5 µM
TGI [30]: 49.8 µM
TGI [31]: > 100 µM
TGI [50]: 75.6 µM
TGI [33]: 43.2 µM
TGI [35]: > 100 µM
TGI [36]: > 100 µM
TGI [56]: 42.6 µM
TGI [52]: > 100 µM
TGI [38]: 84 µM
TGI [39]: > 100 µM
TGI [40]: 31.1 µM
TGI [41]: 81.2 µM
TGI [53]: 39.8 µM
TGI [42]: 58.9 µM

CSc1nc2c(nc(N)n2C2OC(CO)C(O)C(O)C2O)c(=O)n1C (stereo unspecified)
TGI [1]: > 100 µM
TGI [54]: > 100 µM
TGI [2]: > 100 µM
TGI [3]: > 100 µM
TGI [4]: > 100 µM
TGI [5]: > 100 µM
TGI [6]: > 100 µM
TGI [7]: > 100 µM
TGI [8]: > 100 µM
TGI [10]: > 100 µM
TGI [43]: > 100 µM
TGI [11]: > 100 µM
TGI [13]: > 100 µM
TGI [14]: > 100 µM
TGI [44]: > 100 µM
TGI [15]: > 100 µM
TGI [16]: > 100 µM
TGI [17]: > 100 µM
TGI [18]: > 100 µM
TGI [45]: > 100 µM
TGI [19]: > 100 µM
TGI [20]: > 100 µM
TGI [21]: > 100 µM
TGI [22]: > 100 µM
TGI [23]: > 100 µM
TGI [46]: > 100 µM
TGI [24]: > 100 µM
TGI [55]: > 100 µM
TGI [25]: > 100 µM
TGI [26]: > 100 µM
TGI [27]: > 100 µM
TGI [47]: > 100 µM
TGI [48]: > 100 µM
TGI [28]: > 100 µM
TGI [30]: > 100 µM
TGI [31]: > 100 µM
TGI [50]: > 100 µM
TGI [32]: > 100 µM
TGI [33]: > 100 µM
TGI [34]: > 100 µM
TGI [35]: > 100 µM
TGI [36]: > 100 µM
TGI [37]: > 100 µM
TGI [56]: > 100 µM
TGI [52]: > 100 µM
TGI [57]: > 100 µM
TGI [38]: > 100 µM
TGI [39]: > 100 µM
TGI [40]: > 100 µM
TGI [58]: > 100 µM
TGI [41]: > 100 µM
TGI [53]: > 100 µM
TGI [42]: > 100 µM

O=C(OCc1ccccc1)N1N=NC2C1C1CC(OCc3ccccc3)(OCc3ccccc3)C2O1 (stereo unspecified)
TGI [1]: > 100 µM
TGI [54]: > 100 µM
TGI [2]: > 100 µM
TGI [3]: > 100 µM
TGI [4]: > 100 µM
TGI [5]: > 100 µM
TGI [6]: > 100 µM
TGI [7]: > 100 µM
TGI [9]: > 100 µM
TGI [43]: > 100 µM
TGI [12]: > 100 µM
TGI [13]: > 100 µM
TGI [14]: > 100 µM
TGI [44]: > 100 µM
TGI [15]: > 100 µM
TGI [16]: > 100 µM
TGI [17]: > 100 µM
TGI [18]: > 100 µM
TGI [45]: > 100 µM
TGI [19]: > 100 µM
TGI [20]: > 100 µM
TGI [21]: > 100 µM
TGI [22]: > 100 µM
TGI [23]: > 100 µM
TGI [46]: > 100 µM
TGI [24]: > 100 µM
TGI [55]: > 100 µM
TGI [25]: > 100 µM
TGI [26]: > 100 µM
TGI [47]: > 100 µM
TGI [48]: > 100 µM
TGI [49]: > 100 µM
TGI [29]: > 100 µM
TGI [30]: > 100 µM
TGI [31]: > 100 µM
TGI [50]: > 100 µM
TGI [32]: > 100 µM
TGI [51]: > 100 µM
TGI [33]: > 100 µM
TGI [34]: > 100 µM
TGI [35]: > 100 µM
TGI [36]: > 100 µM
TGI [56]: > 100 µM
TGI [52]: > 100 µM
TGI [38]: > 100 µM
TGI [40]: > 100 µM
TGI [58]: > 100 µM
TGI [41]: > 100 µM
TGI [53]: > 100 µM
TGI [42]: > 100 µM

— PubChem BioAssay (NCI)
